Results published in ChEMBL document CHEMBL3046732, “Synthesis and biological evaluation of new [1,3,4]thiadiazepino[7,6-b]quinolin-2-amines as potent anti-microbial agents” (2013).

Assays:
Bacillus subtilis = assay: Antimicrobial activity against Bacillus subtilis assessed as growth inhibition by microdilution method
Curvularia australiensis = assay: Antimicrobial activity against Curvularia australiensis assessed as growth inhibition by microdilution method; assay type: functional
Streptococcus pyogenes = assay: Antimicrobial activity against Streptococcus pyogenes assessed as growth inhibition by microdilution method
Staphylococcus aureus = assay: Antimicrobial activity against Staphylococcus aureus assessed as growth inhibition by microdilution method
Aspergillus flavus = assay: Antimicrobial activity against Aspergillus flavus assessed as growth inhibition by microdilution method; assay type: functional
Escherichia coli = assay: Antimicrobial activity against Escherichia coli assessed as growth inhibition by microdilution method
Trichoderma reesei = assay: Antimicrobial activity against Trichoderma reesei assessed as growth inhibition by microdilution method; assay type: functional
Alternaria alternata = assay: Antimicrobial activity against Alternaria alternata assessed as growth inhibition by microdilution method; assay type: functional
Salmonella typhimurium = assay: Antimicrobial activity against Salmonella enterica subsp. enterica serovar Typhimurium assessed as growth inhibition by microdilution method
Aspergillus niger = assay: Antimicrobial activity against Aspergillus niger assessed as growth inhibition by microdilution method; assay type: functional
Klebsiella aerogenes = assay: Antimicrobial activity against Enterobacter aerogenes assessed as growth inhibition by microdilution method

Structure (SMILES) | MIC (Bacillus subtilis) | MIC (Curvularia australiensis) | MIC (Streptococcus pyogenes) | MIC (Staphylococcus aureus) | MIC (Aspergillus flavus) | MIC (Escherichia coli) | MIC (Trichoderma reesei) | MIC (Alternaria alternata) | MIC (Salmonella typhimurium) | MIC (Aspergillus niger) | MIC (Klebsiella aerogenes)
Cc1c(Cl)ccc2cc3c(nc12)SC(NCCN1CCOCC1)=NN=C3 | 250 µg/mL | 1000 µg/mL | 250 µg/mL | 250 µg/mL | 1000 µg/mL | 500 µg/mL | 1000 µg/mL | 1000 µg/mL | 125 µg/mL | 1000 µg/mL | 250 µg/mL
Cc1cccc2cc3c(nc12)SC(Nc1ccccc1)=NN=C3 | 1000 µg/mL | > 1000 µg/mL | 1000 µg/mL | 1000 µg/mL | 1000 µg/mL | 1000 µg/mL | 500 µg/mL | 1000 µg/mL | 1000 µg/mL | 1000 µg/mL | 1000 µg/mL
Cc1cccc2cc3c(nc12)SC(Nc1ccccc1F)=NN=C3 | 500 µg/mL | 1000 µg/mL | 1000 µg/mL | 1000 µg/mL | 1000 µg/mL | 500 µg/mL | 1000 µg/mL | 1000 µg/mL | 250 µg/mL | > 1000 µg/mL | 500 µg/mL
Cc1cccc2cc3c(nc12)SC(Nc1cccc(F)c1)=NN=C3 | 1000 µg/mL | 1000 µg/mL | 500 µg/mL | 500 µg/mL | 1000 µg/mL | 1000 µg/mL | 500 µg/mL | 500 µg/mL | 500 µg/mL | 1000 µg/mL | 1000 µg/mL
Cc1cccc2cc3c(nc12)SC(Nc1ccc(F)cc1)=NN=C3 | 500 µg/mL | 1000 µg/mL | 250 µg/mL | 250 µg/mL | 1000 µg/mL | 250 µg/mL | 500 µg/mL | 500 µg/mL | 500 µg/mL | 1000 µg/mL | 500 µg/mL
Cc1cccc2cc3c(nc12)SC(Nc1ccccc1Cl)=NN=C3 | > 1000 µg/mL | 500 µg/mL | > 1000 µg/mL | > 1000 µg/mL | 1000 µg/mL | > 1000 µg/mL | 1000 µg/mL | 1000 µg/mL | > 1000 µg/mL | > 1000 µg/mL | > 1000 µg/mL
Cc1cccc2cc3c(nc12)SC(Nc1cccc(Cl)c1)=NN=C3 | 1000 µg/mL | 1000 µg/mL | 1000 µg/mL | 1000 µg/mL | 1000 µg/mL | 1000 µg/mL | 1000 µg/mL | 500 µg/mL | 1000 µg/mL | 500 µg/mL | 1000 µg/mL
Cc1cccc2cc3c(nc12)SC(Nc1ccc(Cl)cc1)=NN=C3 | 1000 µg/mL | 500 µg/mL | 1000 µg/mL | 1000 µg/mL | 250 µg/mL | 1000 µg/mL | 1000 µg/mL | 500 µg/mL | 1000 µg/mL | 1000 µg/mL | 1000 µg/mL
Cc1ccccc1NC1=NN=Cc2cc3cccc(C)c3nc2S1 | 1000 µg/mL | 500 µg/mL | 1000 µg/mL | 1000 µg/mL | 125 µg/mL | 1000 µg/mL | 125 µg/mL | 1000 µg/mL | 1000 µg/mL | 500 µg/mL | 1000 µg/mL
Cc1ccc(NC2=NN=Cc3cc4cccc(C)c4nc3S2)cc1 | 1000 µg/mL | 1000 µg/mL | 1000 µg/mL | 1000 µg/mL | 500 µg/mL | 1000 µg/mL | 500 µg/mL | 1000 µg/mL | 1000 µg/mL | 1000 µg/mL | 1000 µg/mL
Cc1cccc(C)c1NC1=NN=Cc2cc3cccc(C)c3nc2S1 | 1000 µg/mL | 1000 µg/mL | 1000 µg/mL | 1000 µg/mL | 500 µg/mL | 1000 µg/mL | 250 µg/mL | 500 µg/mL | 1000 µg/mL | 1000 µg/mL | 1000 µg/mL
Cc1ccc(NC2=NN=Cc3cc4cccc(C)c4nc3S2)c(C)c1 | 1000 µg/mL | 500 µg/mL | 1000 µg/mL | 1000 µg/mL | 500 µg/mL | 1000 µg/mL | 250 µg/mL | 500 µg/mL | 1000 µg/mL | 1000 µg/mL | 1000 µg/mL
CCc1ccc(NC2=NN=Cc3cc4cccc(C)c4nc3S2)cc1 | 250 µg/mL | 500 µg/mL | 500 µg/mL | 500 µg/mL | 1000 µg/mL | 500 µg/mL | 500 µg/mL | 500 µg/mL | 1000 µg/mL | 500 µg/mL | 1000 µg/mL
Cc1cccc2cc3c(nc12)SC(NCc1ccccc1)=NN=C3 | > 1000 µg/mL | 1000 µg/mL | > 1000 µg/mL | > 1000 µg/mL | 1000 µg/mL | > 1000 µg/mL | 1000 µg/mL | 1000 µg/mL | > 1000 µg/mL | 500 µg/mL | 1000 µg/mL
Cc1cccc2cc3c(nc12)SC(NCCN1CCOCC1)=NN=C3 | 1000 µg/mL | 500 µg/mL | 1000 µg/mL | 1000 µg/mL | 250 µg/mL | 1000 µg/mL | 250 µg/mL | 500 µg/mL | 1000 µg/mL | 500 µg/mL | 1000 µg/mL
Cc1c(Cl)ccc2cc3c(nc12)SC(Nc1ccccc1Cl)=NN=C3 | 500 µg/mL | 250 µg/mL | 500 µg/mL | 500 µg/mL | 500 µg/mL | 500 µg/mL | 60 µg/mL | 60 µg/mL | 500 µg/mL | 500 µg/mL | 500 µg/mL
O=C(N[C@H](CO)[C@H](O)c1ccc([N+](=O)[O-])cc1)C(Cl)Cl [CHLORAMPHENICOL] | 1000 µg/mL |  | 1000 µg/mL | 1000 µg/mL |  | 1000 µg/mL |  |  | 1000 µg/mL |  | 1000 µg/mL

Now those with a lower MIC (Bacillus subtilis), led by results:

MIC (Bacillus subtilis) | MIC (Curvularia australiensis) | MIC (Streptococcus pyogenes) | MIC (Staphylococcus aureus) | MIC (Aspergillus flavus) | MIC (Escherichia coli) | MIC (Trichoderma reesei) | MIC (Alternaria alternata) | MIC (Salmonella typhimurium) | MIC (Aspergillus niger) | MIC (Klebsiella aerogenes) | Structure (SMILES)
125 µg/mL | 1000 µg/mL | 60 µg/mL | > 1000 µg/mL | 500 µg/mL | 60 µg/mL | 250 µg/mL | 250 µg/mL | > 1000 µg/mL | 1000 µg/mL | 60 µg/mL | Cc1c(Cl)ccc2cc3c(nc12)SC(Nc1ccccc1)=NN=C3
125 µg/mL | 500 µg/mL | 60 µg/mL | 1000 µg/mL | 500 µg/mL | 500 µg/mL | 250 µg/mL | 250 µg/mL | 1000 µg/mL | 500 µg/mL | 1000 µg/mL | Cc1c(Cl)ccc2cc3c(nc12)SC(Nc1ccc(F)cc1)=NN=C3
125 µg/mL | 1000 µg/mL | 125 µg/mL | 500 µg/mL | 500 µg/mL | 60 µg/mL | 250 µg/mL | 500 µg/mL | 1000 µg/mL | 500 µg/mL | 1000 µg/mL | Cc1c(Cl)ccc2cc3c(nc12)SC(Nc1cccc(Cl)c1)=NN=C3
125 µg/mL | 1000 µg/mL | 250 µg/mL | 500 µg/mL | 1000 µg/mL | 250 µg/mL | 250 µg/mL | 500 µg/mL | 500 µg/mL | 1000 µg/mL | 500 µg/mL | Cc1ccc(NC2=NN=Cc3cc4ccc(Cl)c(C)c4nc3S2)cc1
125 µg/mL | > 1000 µg/mL | 500 µg/mL | 1000 µg/mL | > 1000 µg/mL | 1000 µg/mL | 1000 µg/mL | 1000 µg/mL | 1000 µg/mL | 1000 µg/mL | 1000 µg/mL | CCc1ccc(NC2=NN=Cc3cc4ccc(Cl)c(C)c4nc3S2)cc1
60 µg/mL | 500 µg/mL | 1000 µg/mL | 1000 µg/mL | 500 µg/mL | 1000 µg/mL | 500 µg/mL | 500 µg/mL | 60 µg/mL | 500 µg/mL | 500 µg/mL | Cc1c(Cl)ccc2cc3c(nc12)SC(NCc1ccccc1)=NN=C3
60 µg/mL | 1000 µg/mL | 60 µg/mL | 500 µg/mL | 500 µg/mL | 500 µg/mL | 250 µg/mL | 500 µg/mL | 500 µg/mL | 500 µg/mL | 500 µg/mL | Cc1c(Cl)ccc2cc3c(nc12)SC(Nc1ccccc1F)=NN=C3
60 µg/mL | 1000 µg/mL | 1000 µg/mL | 1000 µg/mL | 1000 µg/mL | 500 µg/mL | 250 µg/mL | 1000 µg/mL | 1000 µg/mL | 1000 µg/mL | 500 µg/mL | Cc1c(Cl)ccc2cc3c(nc12)SC(Nc1cccc(F)c1)=NN=C3
60 µg/mL | 500 µg/mL | 500 µg/mL | 1000 µg/mL | 1000 µg/mL | 500 µg/mL | 125 µg/mL | 250 µg/mL | 1000 µg/mL | 500 µg/mL | 500 µg/mL | Cc1c(Cl)ccc2cc3c(nc12)SC(Nc1ccc(Cl)cc1)=NN=C3
60 µg/mL | 500 µg/mL | 250 µg/mL | 500 µg/mL | 1000 µg/mL | 250 µg/mL | 60 µg/mL | 250 µg/mL | 500 µg/mL | 500 µg/mL | 250 µg/mL | Cc1ccccc1NC1=NN=Cc2cc3ccc(Cl)c(C)c3nc2S1
60 µg/mL | 500 µg/mL | 60 µg/mL | 500 µg/mL | 500 µg/mL | 125 µg/mL | 250 µg/mL | 125 µg/mL | 1000 µg/mL | 500 µg/mL | 500 µg/mL | Cc1cccc(C)c1NC1=NN=Cc2cc3ccc(Cl)c(C)c3nc2S1
30 µg/mL | 500 µg/mL | 60 µg/mL | 500 µg/mL | 500 µg/mL | 60 µg/mL | 250 µg/mL | 250 µg/mL | 500 µg/mL | 500 µg/mL | 500 µg/mL | Cc1ccc(NC2=NN=Cc3cc4ccc(Cl)c(C)c4nc3S2)c(C)c1
